Data: ChEMBL document CHEMBL3608235, “Pyrroloaryls and pyrroloheteroaryls: Inhibitors of the HIV fusion/attachment, reverse transcriptase and integrase” (Bioorg Med Chem, 2015)
≈ marks a conversion by molar mass, not a printed value. Each block holds one compound with its values, some of them ahead of it.

Key:
[1] = tested on: Human immunodeficiency virus 2; assay: Antiviral activity against HIV2 LAI; assay type: functional, organism-based; details: Human immunodeficiency virus 2, LAI
[2] = tested on: Human immunodeficiency virus 1; assay: Antiviral activity against HIV1 SF2; assay type: functional, organism-based; details: Human immunodeficiency virus 1, SF2
[3] = tested on: Human immunodeficiency virus 1; assay: Antiviral activity against HIV1 NL4-3; assay type: functional, organism-based; details: Human immunodeficiency virus 1, NL4-3
[4] = tested on: Human immunodeficiency virus 1; assay: Antiviral activity against HIV1 BAL; assay type: functional, organism-based; details: Human immunodeficiency virus 1, BAL
[5] = tested on: Human immunodeficiency virus 1; assay: Antiviral activity against HIV1 SF162; assay type: functional, organism-based; details: Human immunodeficiency virus 1, SF162
[6] = tested on: Human immunodeficiency virus 1; assay: Antiviral activity against HIV1 JRFL; assay type: functional, organism-based; details: Human immunodeficiency virus 1, JRFL
[7] = tested on: Human immunodeficiency virus 1; assay: Antiviral activity against HIV1 TLAV; assay type: functional, organism-based; details: Human immunodeficiency virus 1, TLAV
[8] = tested on: Human immunodeficiency virus; assay: Antiviral activity against HIV infected in human MT4 cells assessed as reduction in virus-induced cytopathogenicity; assay type: functional, organism-based; details: Human immunodeficiency virus 1, MT4
[9] = tested on: Human immunodeficiency virus 1; assay: Antiviral activity against HIV1 by single-cycle antiviral assay; assay type: functional, organism-based
[10] = tested on: Human immunodeficiency virus 1; assay: Antiviral activity against HIV1 by multi-cycle antiviral assay; assay type: functional, organism-based
[11] = tested on: Human immunodeficiency virus 1; assay: Antiviral activity against HIV1 3B infected in human primary lymphocytes assessed as reduction in p24 production incubated for 4 days by ELISA method; assay type: functional, organism-based; details: Human immunodeficiency virus 1, 3B, 96 h
PBL = assay: Cytotoxicity against human PBL cells incubated for 4 days by MTT assay; assay type: cell-based; details: 96 h
[12] = tested on: Human immunodeficiency virus 1; assay: Antiviral activity against HIV1 infected in human MT4 cells; assay type: functional, organism-based; details: Human immunodeficiency virus 1, MT4
[13] = tested on: Human immunodeficiency virus 1; assay: Antiviral activity against HIV1; assay type: functional, organism-based
[14] = tested on: Human immunodeficiency virus; assay: Antiviral activity against HIV; assay type: functional, organism-based; details: Human immunodeficiency virus 1
[15] = tested on: Human immunodeficiency virus 1; assay: Antiviral activity against HIV1 infected in human C8166 cells assessed as inhibition of virus replication; assay type: functional, organism-based; details: Human immunodeficiency virus 1, C8166
[16] = Cytotoxicity against human C8166 cells; assay type: cell-based; details: human, C8166 cells
[17] = tested on: Human immunodeficiency virus 1; assay: Antiviral activity against HIV1 3B infected in human MT2 cells assessed as reduction in virus-induced cell death; assay type: functional; details: Human immunodeficiency virus 1, 3B
[18] = Cytotoxicity against human MT2 cells; assay type: cell-based; details: read-out: TC50 (the source's name)
[19] = tested on: Human immunodeficiency virus; assay: Antiviral activity against HIV expressing raltegravir-resistant integrase mutants; assay type: functional, organism-based; details: Human immunodeficiency virus 1
[20] = tested on: Human immunodeficiency virus 1; assay: Antiviral activity against HIV1 3B; assay type: functional, organism-based; details: Human immunodeficiency virus 1, 3B
[21] = tested on: Human immunodeficiency virus 2; assay: Antiviral activity against HIV2 ROD; assay type: functional, organism-based; details: Human immunodeficiency virus 2, ISOLATE ROD
[22] = tested on: Human immunodeficiency virus; assay: Antiviral activity against HIV by XTT assay; assay type: functional, organism-based; details: Human immunodeficiency virus 1
[23] = Inhibition of HIV1 LTR-mediated transcription assessed as drug level causing 50% inhibition of protein/RNA complex formation incubated for 15 mins; set-up: species or system Human immunodeficiency virus

- EC50 [1]: 0.85 µM
- EC50 [2]: 0.85 µM
- EC50 [3]: 0.85 µM
- EC50 [4]: 0.85 µM
- EC50 [5]: 0.85 µM
- EC50 [6]: 0.85 µM
- EC50 [7]: 0.85 µM
SMILES: O=C(C(=O)N1CCN(C(=O)c2ccccc2)CC1)c1c[nH]c2cccc(F)c12

- EC50 [8]: > 8 µg/mL
SMILES: O=C(O)c1ccc(OCc2nc3ccccc3n3cccc23)cc1

- IC50 [14]: 46 µM
SMILES: N#Cc1cn(COCCO)c2ncnc(N)c12

- EC50 [11]: 0.86 µM
SMILES: O=C(C[C@H]1C(=O)Nc2ccccc2C2CCCN21)OCc1ccccc1 (some centres undefined)
- EC50 (PBL): 28.5 µM

- EC50 [8]: > 31 µg/mL
SMILES: COc1ccc(Nc2nc3ccccc3n3cccc23)cc1OC

- EC50 [20]: 8.9 µM
- EC50 [21]: > 150 µM
SMILES: O=C1N(Cc2ccccc2Cl)c2cccn2S(=O)(=O)N1Cc1cccc(Cl)c1

- EC50 [20]: 11 µM
- EC50 [21]: > 150 µM
SMILES: O=C1N(Cc2cccc(Cl)c2)c2cccn2S(=O)(=O)N1Cc1cccc(F)c1

- EC50 [11]: 16 µM
SMILES: Cn1ccc2c1C(=O)Nc1ccccc1S2
- EC50 (PBL): > 434 µM

- EC50 [15]: 9.37 µM
SMILES: CCOC(=O)c1ncc(O)c2c1C(=O)N(CCc1c[nH]c3ccccc13)C2=O
- CC50 [16]: 26.7 µM

- EC50 [20]: 6.5 µM
- EC50 [21]: > 150 µM
SMILES: N#Cc1cccc(CN2C(=O)N(Cc3ccccc3)S(=O)(=O)n3cccc32)c1

- EC50 [15]: 9.15 µM
SMILES: CCOC(=O)c1ncc(O)c2c1C(=O)N(CCc1ccc(OC)c(OC)c1)C2=O
- CC50 [16]: 33.5 µM

Further lines, the compound ahead of its results:

SMILES: CCOC(=O)CCC(NC(=O)c1ccc(Nc2nc3cc(C(F)(F)F)ccc3n3cccc23)cc1)C(=O)OCC (centres undefined)
- EC50 [8]: > 39 µg/mL

SMILES: O=C1NC(c2cccnc2)c2c(-c3ccccc3)n[nH]c21 (centres undefined)
- EC50 [9]: 8.2 µM
- EC50 [10]: 7.5 µM

SMILES: CN1C(=O)c2ccn(C)c2S(=O)(=O)c2ccccc21
- EC50 [11]: 14 µM
- EC50 (PBL): > 362 µM

SMILES: CCOC(=O)c1cc2c3cccc(OC)c3c3c(N)cccc3n2c1C
- EC50 [12]: 60 µM

SMILES: CCOC(=O)c1cc2c3cc(OC)ccc3c3ccc(N)cc3n2c1C
- EC50 [12]: 120 µM

SMILES: C[C@@H]1CN(C(=O)c2ccccc2)CCN1C(=O)C(=O)c1c[nH]c2cnccc12
- EC50 [13]: 0.0216 µM

SMILES: CCOC(=O)c1ncc(O)c2c1C(=O)N(CCc1ccc(F)cc1)C2=O
- EC50 [15]: 1.65 µM
- CC50 [16]: 13.2 µM

SMILES: O=C(C[C@H]1C(=O)Nc2ccccc2-c2cccn21)OCc1ccccc1
- IC90 [17]: 0.29 µg/mL (≈ 0.837 µM)
- CC50 [18]: 10 µg/mL (≈ 28.9 µM)

SMILES: CC(=O)OCC1=C2C(=O)N(Cc3ccc(F)c(Cl)c3)C(=O)C2=C(O)C(=O)C1C(C)C (centres undefined)
- IC50 [19]: 15.6 µM

SMILES: CCCCCCCCCCCC(=O)NC1=NN(C)c2ncnc3c2c1cn3[C@@H]1O[C@H](CO)[C@@H](O)[C@H]1O
- IC50 [22]: > 100 µM

SMILES: N#Cc1cn(COC(CO)CO)c2nc(N)nc(O)c12
- IC50 [14]: 3 µM

SMILES: CCCCCCC(=O)NC1=NN(C)c2ncnc3c2c1cn3[C@@H]1O[C@H](CO)[C@@H](O)[C@H]1O
- IC50 [22]: 0.035 µM

SMILES: CCCCCCCCC(=O)NC1=NN(C)c2ncnc3c2c1cn3[C@@H]1O[C@H](CO)[C@@H](O)[C@H]1O
- IC50 [22]: > 100 µM

SMILES: COc1cc2c(cc1OCCC(=O)Nc1cc(C(=O)Nc3cc(C(=O)NCCC(=N)N)n(C)c3)n(C)c1)N=C[C@@H]1CCCN1C2=O
- AC50 [23]: 20 µM

SMILES: CN1N=C(N)c2cn([C@H]3CC[C@@H](CO)O3)c3ncnc1c23
- EC50 [13]: 21 µM

SMILES: CCCCCC(=O)NC1=NN(C)c2ncnc3c2c1cn3[C@@H]1O[C@H](CO)[C@@H](O)[C@H]1O
- IC50 [22]: 0.35 µM

SMILES: O=C1CC(CO)=C2C(=O)N(Cc3ccc(F)c(Cl)c3)C(=O)C2=C1O
- IC50 [19]: 6.5 µM

SMILES: N#Cc1ccccc1CN1C(=O)N(Cc2ccccc2)S(=O)(=O)n2cccc21
- EC50 [20]: 5.1 µM
- EC50 [21]: > 150 µM

SMILES: O=C1[C@H](Cc2ccc(O)cc2)n2cccc2-c2ccccc2N1CCc1ccc(O)cc1
- IC90 [17]: 0.8 µg/mL (≈ 1.88 µM)
- CC50 [18]: 10 µg/mL (≈ 23.6 µM)
